Results: patent US20220265667A1 (priority 2019, published 2022)
Read-outs that look alike come from different tables or passages of the source.

Experiments:
[1] = tested on: human nasal tissue mast cells activated with LPS; assay: Ex vivo LPS-induced tryptase release (degranulation) of human nasal tissue mast cells; format: cell-based; conditions: for Tryptase: with LPS; for inhibition at 3 µM / inhibition at 10 µM / inhibition at 30 µM / inhibition at 60 µM / IC50: Homo sapiens, Mast cell; for inhibition at 3 µM / inhibition at 10 µM / inhibition at 30 µM / inhibition at 60 µM: read-out: percentage inhibition of degranulation (tryptase); for IC50: read-out: IC50 ex vivo inhibition of tryptase release; for HillSlope / LogIC50: LPS
Source text: Fresh human nasal mucosa was used (middle nasal turbinate), which was surgically removed as standard procedure during nose correction surgeries (septorhinoplasty with conchotomy). Only tissues from those patients who had not previously received medication in the form of cortisone preparations or antihistamines were used. The removed tissue was cleansed immediately after the surgical removal with Epilife Medium (Thermo Fisher Scientific, No. […]500), referred to as “medium” in terms of ex vivo experiments, a chemically defined, serum-free full medium for epithelial cells and keratinocytes. The tissue was then cut into 12 pieces of equal size, cleansed again in the medium, and the exact fresh weight of the cut tissue pieces was determined for later normalization and then stored overnight in cold medium. The weight of the tissue pieces varied between 10 and 20 mg.
After an one hour of pre-incubation with the respective compositions i), ii) or iii), 4 μg/ml lipopolysaccharide (LPS, Sigma-Aldrich GmbH, L4516) was added to each well—except for one well serving as the negative control—in order to induce tryptase degranulation. Then, 250 μl supernatant were taken from each well at the time points of 15 minutes, 60 minutes (one hour), 120 minutes (two hours), 240 minutes (four hours), 480 minutes (eight hours), and 1200 minutes (20 hours) after stimulation with LPS and the supernatants were directly frozen. Immediately after the removal of 250 μl supernatant, the volume in each well was increased to the original level and the original composition by adding 250 μl of the respective composition i), ii) and iii).
For the determination of the amount of degranulated tryptase, the frozen supernatants were thawed at 22° C. and then subjected to a tryptase ELISA Kit from Boster Biological Technology Co., Ltd (No. EZ0898, Assay Range: 156-10000 pg/ml, Sensitivity: <15 pg/ml) according to manufacturer's instructions, and the ELISA measurements were performed with the Multiskan Go instrument from Thermo Scientific and the SkanIt Re 4.1 software.
The statistical analysis was conducted in two steps. In a first step, the raw measurement values were normalized to 10 mg tissue. In a second step, a correction factor was introduced for all time points of supernatant removal to compensate for the 250 μl supernatant taken for analysis at each time and the subsequent re-addition of medium incl. factors. The statistical calculations were performed with Microsoft Excel 2010.
For the analysis, a non-linear regression (variable slope—4-parametric) was used. The program setting “Dose-Response-Inhibition” was applied for an automatic calculation, readout and display of the IC50 values.

[2] = tested on: murine bone marrow-derived mast cells (BMMCs); assay: In vitro release of β-hexosaminidase (degranulation) from IgE-preloaded murine bone marrow-derived mast cells; format: cell-based, mice
Description: According to the technique established by Razin et al. (Proc. Natl. Acad. Sci. USA 1981, 78:2559-2561), bone marrow cells (1×10^6/ml) from 6 to 8 week old mice (129/Sv×C57BL/6) were cultured (37° C. and 5% CO2) as single cell suspensions in RPMI 1640 medium (Sigma-Aldrich, Munich, Germany) supplemented with 15% fetal calf serum (FCS), 1% X63Ag8-653-conditioned medium (Karasuyama and Melchers, Eur. J. Immunol. 1988, 18:97-104), 2 mM L-glutamine, 10 μM β-mercaptoethanol, 50 units/ml penicillin, and […] streptomycin. At weekly intervals, the non-adherent cells were reseeded at 5×10^5 cells/ml in fresh medium. After 4-6 weeks in culture, greater than 99% of the cells were KIT- and […] as assessed by fluorescence-activated cell sorting (FACS) using phycoerythrin-labeled anti-KIT antibodies (Pharmingen, Mississauga, Canada) and fluorescein isothiocyanate (FITC)-labelled hamster anti-mouse FcεRIα antibodies (eBioscience, Frankfurt, Germany), respectively. The resulting cells are called bone marrow-derived mast cells (BMMCs).
For degranulation studies, BMMCs were preloaded with 0.15 μg/ml IgE anti-DNP (dinitrophenyl; Sigma Aldrich, Munich, Germany) overnight at 37° C. The cells were then washed and resuspended in Tyrode's buffer (130 mM NaCl, 5 mM KCl, 1.4 mM CaCl2, 1 mM MgCl2, 5.6 mM glucose, and 0.1% bovine serum albumin (BSA) in 10 mM Hepes, pH 7.4).
Subsequently, the cells were left unstimulated (unst) or stimulated with 20 ng/ml antigen (Ag: dinitrophenyl-human serum albumin ([DNP-HSA]; dissolved in medium); Sigma Aldrich, Munich, Germany) for 30 min. The degree of degranulation was determined by measuring the release of β-hexosaminidase (Nishizumi et al., J Immunol 1997; 158:2350-2355). Experiments were performed in triplicates.

[3] = Mus musculus, BMMC, read-out: percentage of inhibition of β-hexosaminidase release

SMILES: CCNC1=Nc2ccc(Cl)cc2C(C)(c2ccccc2)O1 (racemic) [Etifoxine, 6-Chloro-2-N-ethyl-4-methyl-4-phenyl-4H-3,1-benzoxazine-2-amine]
- Tryptase ([1]; 3 μM Etifoxine, 15 min): 1107.7 pg/ml/10 mg tissue
- Tryptase ([1]; 3 μM Etifoxine, 60 min): 1822.9 pg/ml/10 mg tissue
- Tryptase ([1]; 3 μM Etifoxine, 120 min): 2116.7 pg/ml/10 mg tissue
- Tryptase ([1]; 3 μM Etifoxine, 240 min): 3032.7 pg/ml/10 mg tissue
- Tryptase ([1]; 3 μM Etifoxine, 480 min): 3622.0 pg/ml/10 mg tissue
- Tryptase ([1]; 3 μM Etifoxine, 1200 min): 5419.5 pg/ml/10 mg tissue
- Tryptase ([1]; 10 μM Etifoxine, 15 min): 763.6 pg/ml/10 mg tissue
- Tryptase ([1]; 10 μM Etifoxine, 60 min): 1252.6 pg/ml/10 mg tissue
- Tryptase ([1]; 10 μM Etifoxine, 120 min): 2035.3 pg/ml/10 mg tissue
- Tryptase ([1]; 10 μM Etifoxine, 240 min): 2901.8 pg/ml/10 mg tissue
- Tryptase ([1]; 10 μM Etifoxine, 480 min): 3275.1 pg/ml/10 mg tissue
- Tryptase ([1]; 10 μM Etifoxine, 1200 min): 4687.0 pg/ml/10 mg tissue
- Tryptase ([1]; 30 μM Etifoxine, 15 min): 676.0 pg/ml/10 mg tissue
- Tryptase ([1]; 30 μM Etifoxine, 60 min): 857.5 pg/ml/10 mg tissue
- Tryptase ([1]; 30 μM Etifoxine, 120 min): 1619.4 pg/ml/10 mg tissue
- Tryptase ([1]; 30 μM Etifoxine, 240 min): 2276.4 pg/ml/10 mg tissue
- Tryptase ([1]; 30 μM Etifoxine, 480 min): 2678.2 pg/ml/10 mg tissue
- Tryptase ([1]; 30 μM Etifoxine, 1200 min): 3675.9 pg/ml/10 mg tissue
- Tryptase ([1]; 60 μM Etifoxine, 15 min): 881.1 pg/ml/10 mg tissue
- Tryptase ([1]; 60 μM Etifoxine, 60 min): 1054.5 pg/ml/10 mg tissue
- Tryptase ([1]; 60 μM Etifoxine, 120 min): 1592.2 pg/ml/10 mg tissue
- Tryptase ([1]; 60 μM Etifoxine, 240 min): 2241.2 pg/ml/10 mg tissue
- Tryptase ([1]; 60 μM Etifoxine, 480 min): 2720.1 pg/ml/10 mg tissue
- Tryptase ([1]; 60 μM Etifoxine, 1200 min): 3472.1 pg/ml/10 mg tissue
- inhibition at 3 µM ([1]; 2 h): 79%
- inhibition at 10 µM ([1]; 2 h): 83%
- inhibition at 30 µM ([1]; 2 h): 105%
- inhibition at 60 µM ([1]; 2 h): 106%
- inhibition at 3 µM ([1]; 4 h): 104%
- inhibition at 10 µM ([1]; 4 h): 107%
- inhibition at 30 µM ([1]; 4 h): 123%
- inhibition at 60 µM ([1]; 4 h): 124%
- IC50 ([1]; 2 hours (120 minutes) after LPS addition): 14.7 µM
- IC50 ([1]; 4 hours (240 minutes) after LPS addition): 15.1 µM
- HillSlope ([1]; Tryptase 2 h): −4.183
- LogIC50 ([1]; Tryptase 2 h): 1.168
- HillSlope ([1]; Tryptase 4 h): −4.101
- LogIC50 ([1]; Tryptase 4 h): 1.179
- inhibition of LPS-triggered tryptase degranulation achieved (complete) ([1]; summary statement, mast cells of human nasal pieces): 100%
- inhibition at 10 µM [2, 3]: 30%
- inhibition at 30 µM [2, 3]: 68%
- activity (degranulation) of unstimulated IgE-loaded BMMCs ([2]; unstimulated (absence of Ag), independently of the concentration studied): not significantly affected
